In patent US20240293430A1, “WITHAFERIN A AND IMMUNE CHECKPOINT BLOCKER COMBINATION THERAPIES” (University of South Florida, priority 2023, published 2024):
pIC50: −log10 of the molar value.

Experiments:
[1] = tested on: NSCLC cell lines (LLC, H1650 and A549); assay: Cell Titer-Glo cell viability assay; assay type: cell-based, mouse (LLC), human (H1650; settings: 48 h, range over LLC
Method: FIGS. 1A-lE depict that WFA induces ER stress-mediated apoptosis in NSCLC cell lines. (FIG. 1A) NSCLC cells were plated on 96-well plates and treated with different concentrations of WFA ([…]) in triplicates. Forty-eight hours post-treatment, cell viability was determined using Cell Titer-Glo assay. Luminescence values were normalized to control untreated cells and IC50 values are represented as the mean of two independent experiments ±SEM. (FIG. 1B) NSCLC cells were treated WFA for forty-eight hours, then collected to measure apoptotic cell death using Annexin V assay in LLC cells, H1650 cells, and A549 cells. Percentages of early (annexin*DAPI-) and late (annexin*DAPI+) apoptotic cells are represented as means of two separate experiments ±SEM and statistical significance was calculated using one-way ANOVA and a Fisher LSD post hoc test was used to compare the mean of each group to that of the control group. […] The quantification of western blot band density was performed using Image J software v.1.54d and normalized to housekeeping control protein in LLC cells (0-actin). […]
LLC, H1650, or A549 was plated in 96-well plates and treated with WFA (serialdilutions 10-0.078 μM) in triplicates. […] Forty-eight hours after treatment, cell viability was determined using Cell Titer-Glo assay (Promega, Madison, WI, USA) according to the manufacturer's instructions. […]

[2] = tested on: apoptotic marker transcripts in NSCLC cell lines; assay: qRT-PCR of pro- and anti-apoptotic transcripts; assay type: cell-based, mouse (LLC), human (H1650, A549)
Method: FIGS. 1A-lE depict that WFA induces ER stress-mediated apoptosis in NSCLC cell lines. (FIG. 1A) NSCLC cells were plated on 96-well plates and treated with different concentrations of WFA ([…]) in triplicates. Forty-eight hours post-treatment, cell viability was determined using Cell Titer-Glo assay. Luminescence values were normalized to control untreated cells and IC50 values are represented as the mean of two independent experiments ±SEM. (FIG. 1B) NSCLC cells were treated WFA for forty-eight hours, then collected to measure apoptotic cell death using Annexin V assay in LLC cells, H1650 cells, and A549 cells. Percentages of early (annexin*DAPI-) and late (annexin*DAPI+) apoptotic cells are represented as means of two separate experiments ±SEM and statistical significance was calculated using one-way ANOVA and a Fisher LSD post hoc test was used to compare the mean of each group to that of the control group. (FIGS. 1C-1D) WFA treated cells were collected in Trizol and total RNA was isolated to measure the levels of Bax (FIG. 1C) and Bcl2 (FIG. 1D) mRNA using qRT-PCR. PCR experiments were repeated at least twice, and one representative experiment is shown as mean±SEM of the technical replicates. (FIG. 1E) Western blot of ER stress markers p-eIF-2 and CHOP was performed using total lysates of WFA-treated LLC cells. The quantification of western blot band density was performed using Image J software v.1.54d and normalized to housekeeping control protein in LLC cells (0-actin). […] Data were obtained from two independent experiments.
FIGS. 7A-7I depict qRT-PCR analysis of the change in expression of pro-apoptotic and anti-apoptotic induced by WFA treatment. WFA increased the mRNA levels of proapoptotic protein Bak-1 in (FIG. 7A) LLC cells and BAD in (FIG. 7C) H1650 cells. […] PCR was repeated twice, and one representative experiment is shown as mean±SEM of 3 technical replicates. […] (FIGS. 7G-7I) Western blots.
Total cellular RNA was isolated from collected cell pellets using TRIzol reagent (Invitrogen, Waltham, MA, USA) and then quantified using the 2000 Nanodrop spectrophotometer (Thermo Fisher Scientific, Waltham, MA, USA). cDNA synthesis was performed using the Verso cDNA synthesis kit (Thermo Fisher Scientific, Waltham, MA, USA). qPCR was then performed using Forget-Me-Not EvaGreen qPCR Master Mix (Biotium, Fremont, CA, USA) in a Bio-Rad CFX384 thermocycler according to the manufacturer's instructions. The CFX Maestro software version 2.3 (Bio-Rad, Hercules, CA, USA) was used to calculate the ΔCt and ΔΔCt values and gene expression was normalized to housekeeping genes glyceraldehyde 3-phosphate dehydrogenase (GAPDH) or β-actin. The sequences of PCR primers used are listed in Table 2 (Integrated DNA Technologies, Inc, Coralville, IA, USA).

[3] = tested on: ecto-CRT in MC38 and HCT-116 colorectal cancer cell lines; assay: Ecto-CRT by flow cytometry, colorectal cancer; assay type: cell-based, mouse (MC38), human (HCT-116)
Method: FIGS. 8A-8G depict that WFA induced ICD and PD-L1 upregulation in colorectal cancer cell lines. WFA increased the levels of ecto-CRT in the murine colorectal cancer cell line (FIG. 8A) MC-38 and human cell line (FIG. 8B) HCT-116. WFA increased the expression of PD-L1 in both (FIG. 8C) MC-38 and (FIG. 8D) HCT-116 cells. […] H1650 cells (at a higher density) were treated with a higher concentration of WFA (2 and 4 μM) to facilitate cell collection and protein isolation. The band density was quantified using Image J software and normalized to the housekeeping protein. The fold change from untreated control was averaged from two independent experiments ±SEM and one-way ANOVA was used to calculate the statistical significance. A Fisher LSD post hoc test was performed to compare the treatments to the control in (FIG. 8E) LLC, (FIG. 8F) H1650, (FIG. 8G) A549 cells. * p<0.05, ** p<0.01, *** p<0.001, **** p<0.0001.
In vitro WFA-treated or control cells were collected using Accutase cell detachment solution and stained with FACS-diluted (PBS, 10% FBS, 2 mMEDTA) pre-titrated fluorophore conjugated or primary unconjugated antibody solutions (Table 1) for 30 min on ice in the dark. […]

CC1=C(CO)C(=O)O[C@@H]([C@@H](C)[C@H]2CC[C@H]3[C@@H]4C[C@H]5O[C@]56[C@@H](O)C=CC(=O)[C@]6(C)[C@H]4CC[C@]23C)C1 [WFA, Withaferin A]
pIC50 [1]: 5.82 to 6.30
Bax transcripts [2]: increased
Bcl-2 transcripts [2]: reduced
BAD transcripts ([2]; H1650 cells): increased
Survivin transcripts ([2]; LLC and A549): reduced
Xiap transcripts ([2]; LLC and A549): reduced
Bak-1 transcripts ([2]; LLC cells): increased
levels of ecto-CRT [3]: increased
